Where two headings read alike, the source gives them in different places. Starred links: 1 amine or outer side, 2 acyl side, 3 side chain; linkers in the order of their positions; H or OH if unused. Positions of bridges follow the written chain, without caps; N, C: chain ends. Non-standard residues stand in square brackets, D forms with d. Residues, ends and D or L forms follow the SMILES beside them. ξ: configuration not given here. *: point of attachment. Phe(3-Me) = Cc1cccc(C[C@H](N)C(=O)O)c1; γGlu = O=C(O)[C@H](CCC(=O)[*:2])N[*:1]; 2Nal = N[C@@H](Cc1ccc2ccccc2c1)C(=O)O; βAsp = O=C(O)[C@H](CC(=O)[*:2])N[*:1]; Cit = NC(=O)NCCC[C@H](N)C(=O)O; Ile(3ξ) = CCC(C)[C@H](N)C(=O)O; Ahp(2) = CCCCC[C@H](N)C(=O)O; NMeNle = CCCC[C@H](NC)C(=O)O; Tle = CC(C)(C)[C@H](N)C(=O)O; Carboxymethyl = O=C(O)C*; NHexGly = CCCCCCNCC(=O)O; Nle = CCCC[C@H](N)C(=O)O; Orn = NCCC[C@H](N)C(=O)O; Aun = NCCCCCCCCCCC(=O)O; AEEA = NCCOCCOCC(=O)O

Experimental findings from patent US20240218022A1, “ANTI-VISTA MACROCYCLIC PEPTIDES AND COMPOSITIONS” (BRISTOL-MYERS SQUIBB COMPANY, priority 2022, published 2024) are described below.

For the assay, the target named is T1, mouse VISTA (mVISTA) (Mus musculus, UniProt Q9D659).
T1 construct: expressed in transfected cells; host or cells: Human embryonic kidney 293T cells
T1 sequence (Q9D659 33-308): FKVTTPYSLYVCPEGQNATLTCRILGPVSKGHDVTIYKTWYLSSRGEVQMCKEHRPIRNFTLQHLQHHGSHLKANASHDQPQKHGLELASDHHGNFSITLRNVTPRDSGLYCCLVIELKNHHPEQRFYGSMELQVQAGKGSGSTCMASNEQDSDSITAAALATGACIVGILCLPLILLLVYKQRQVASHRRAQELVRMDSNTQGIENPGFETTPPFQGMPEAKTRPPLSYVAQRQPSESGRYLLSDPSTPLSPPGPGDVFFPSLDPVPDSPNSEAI
Description: Cell-Based Binding High-Content Assay For mVISTA (HC CBA mVISTA). The method in brief: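 This high-content binding assay uses HEK293T cells expressing murine VISTA, measuring displacement of 2 nM biotinylated peptide by fluorescent streptavidin imaging. IC50 values come from four-parameter logistic fitting.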

Setting [1] is: cell-based binding high-content assay, mVISTA, the 15th table, read-out: HC CBA mVISTA IC50.
Where [2] appears, read: 293T cells expressing mouse VISTA, competition with biotinylated peptide (2 nM), read-out: HC CBA mVISTA IC50.

Take `CCCCCCN1CC(=O)N[C@@H](Cc2ccc(O)cc2)C(=O)N[C@@H](CCCC)C(=O)N[C@@H](CC(N)=O)C(=O)N[C@@H](CCCNC(=N)N)C(=O)N(C)[C@@H](CCCC)C(=O)N[C@@H](CCCCC)C(=O)N2CCC[C@H]2C(=O)N[C@@H](C(C)C)C(=O)N[C@@H](CC(=O)O)C(=O)N[C@H](C(=O)N[C@@H](CCCN)C(=O)N[C@@H](CC(N)=O)C(=O)O)CSCC(=O)N[C@@H](Cc2ccc3ccccc3c2)C(=O)N[C@@H](Cc2c[nH]c3ccccc23)C(=O)N[C@@H](CC(=O)O)C1=O` [compound 1139] ({CH2CO}-[2Nal]WD[NHexGly]Y[Nle]NR[NMeNle][Ahp(2)]PVDC[Orn]N-OH; thioether N-14): the IC50 (read-out: HC CBA mVISTA IC50) worked out at 36.2 nM.
Take `CCCCCCN1CC(=O)N[C@@H](Cc2ccc(O)cc2)C(=O)N[C@@H](CCCC)C(=O)N[C@@H](CC(=O)O)C(=O)N[C@@H](CCCNC(=N)N)C(=O)N(C)[C@@H](CCCC)C(=O)N[C@@H](CCCCC)C(=O)N2CCC[C@H]2C(=O)N[C@@H](C(C)C)C(=O)N[C@@H](CC(=O)O)C(=O)N[C@H](C(=O)N[C@@H](CO)C(N)=O)CSCC(=O)N[C@@H](Cc2ccc3ccccc3c2)C(=O)N[C@@H](Cc2c[nH]c3ccccc23)C(=O)N[C@@H](CC(=O)O)C1=O` [compound 1257] ({CH2CO}-[2Nal]WD[NHexGly]Y[Nle]DR[NMeNle][Ahp(2)]PVDCS-NH2; thioether N-14): under setting [1], the IC50 was determined as 11.3 nM.
On the same count and under the same terms, next, `CCCCCCN1CC(=O)N[C@@H](Cc2ccc(O)cc2)C(=O)N[C@@H](CCCC)C(=O)N[C@@H](CC(N)=O)C(=O)N[C@@H](CCCNC(N)=O)C(=O)N[C@@H](CC(C)C)C(=O)N[C@@H](CCCCC)C(=O)N2CCC[C@H]2C(=O)N[C@@H](C(C)C)C(=O)N[C@@H](CC(=O)O)C(=O)N[C@H](C(=O)NCC(=O)O)CSCC(=O)N[C@@H](Cc2ccc3ccccc3c2)C(=O)N[C@@H](Cc2c[nH]c3ccccc23)C(=O)N[C@@H](CC(=O)O)C1=O` [compound 1233] ({CH2CO}-[2Nal]WD[NHexGly]Y[Nle]N[Cit]L[Ahp(2)]PVDCG-OH; thioether N-14): 10.5 nM.
Regarding `CCCCCCN1CC(=O)N[C@@H](Cc2ccc(O)cc2)C(=O)N[C@@H](CCCC)C(=O)N[C@@H](CC(N)=O)C(=O)N[C@@H](CCCNC(N)=O)C(=O)N(C)[C@@H](CCCC)C(=O)N[C@@H](CCCCC)C(=O)N2CCC[C@H]2C(=O)N[C@@H](C(C)CC)C(=O)N[C@@H](CO)C(=O)N[C@H](C(=O)NCC(N)=O)CSCC(=O)N[C@@H](Cc2ccccc2)C(=O)N[C@@H](Cc2c[nH]c3ccccc23)C(=O)N[C@@H](CC(=O)O)C1=O` (some centres unmarked) [Example 1388] ({CH2CO}-FWD[NHexGly]Y[Nle]N[Cit][NMeNle][Ahp(2)]P[Ile(3ξ)]SCG-NH2; thioether N-14), the IC50 (read-out: HC CBA mVISTA IC50) is 16.4 nM.
As to `CCCCCCN1CC(=O)N[C@@H](Cc2ccc(O)cc2)C(=O)N[C@@H](CCCC)C(=O)N[C@@H](CC(N)=O)C(=O)N[C@@H](CCCNC(=N)N)C(=O)N(C)[C@@H](CCCC)C(=O)N[C@@H](CCCCC)C(=O)N2CCC[C@H]2C(=O)N[C@@H](C(C)C)C(=O)N[C@@H](CC(=O)O)C(=O)N[C@H](C(=O)N[C@@H](CCCCN)C(=O)N[C@@H](CC(N)=O)C(=O)O)CSCC(=O)N[C@@H](Cc2ccccc2)C(=O)N[C@@H](Cc2c[nH]c3ccccc23)C(=O)N[C@@H](CC(=O)O)C1=O` [compound 1128] ({CH2CO}-FWD[NHexGly]Y[Nle]NR[NMeNle][Ahp(2)]PVDCKN-OH; thioether N-14), the IC50 (read-out: HC CBA mVISTA IC50) is 15.7 nM.
The same measure, in the same setting: as for `CCCCCCN1CC(=O)N[C@@H](Cc2ccc(O)cc2)C(=O)N[C@@H](CCCC)C(=O)N[C@@H](CC(=O)O)C(=O)N[C@@H](CCCNC(=N)N)C(=O)N[C@@H](CC(C)C)C(=O)N[C@@H](CCCCC)C(=O)N2CCC[C@H]2C(=O)N[C@@H](C(C)C)C(=O)N2CCC[C@H]2C(=O)N[C@H](C(=O)NCC(=O)O)CSCC(=O)N[C@@H](Cc2ccccc2)C(=O)N[C@@H](Cc2ccc(O)cc2)C(=O)N[C@@H](CC(=O)O)C1=O` [compound 1118] ({CH2CO}-FYD[NHexGly]Y[Nle]DRL[Ahp(2)]PVPCG-OH; thioether N-14), the figure is 29.9 nM; as for `CCCCCCN1CC(=O)N[C@@H](Cc2ccc(O)cc2)C(=O)N[C@@H](CCCC)C(=O)N[C@@H](CC(N)=O)C(=O)N[C@@H](CCCNC(=N)N)C(=O)N(C)[C@@H](CCCC)C(=O)N[C@@H](CCCCC)C(=O)N2CCC[C@H]2C(=O)N[C@@H](C(C)C)C(=O)N[C@@H](CC(=O)O)C(=O)N[C@H](C(=O)N[C@@H](CCCN)C(=O)N[C@@H](CCC(N)=O)C(=O)O)CSCC(=O)N[C@@H](Cc2ccccc2)C(=O)N[C@@H](Cc2c[nH]c3ccccc23)C(=O)N[C@@H](CC(=O)O)C1=O` [compound 1130] ({CH2CO}-FWD[NHexGly]Y[Nle]NR[NMeNle][Ahp(2)]PVDC[Orn]Q-OH; thioether N-14), 17.5 nM; as for `CCCCCCN1CC(=O)N[C@@H](Cc2ccc(O)cc2)C(=O)N[C@@H](Cc2ccc(OCC(=O)O)cc2)C(=O)N[C@@H](CC(N)=O)C(=O)N[C@@H](CCCNC(=N)N)C(=O)N(C)[C@@H](CCCC)C(=O)N[C@@H](CCCCC)C(=O)N2CCC[C@H]2C(=O)N[C@@H](C(C)(C)C)C(=O)N[C@@H](CC(=O)O)C(=O)N[C@H](C(N)=O)CSCC(=O)N[C@@H](Cc2ccccc2)C(=O)N[C@@H](Cc2c[nH]c3ccccc23)C(=O)N[C@@H](CC(=O)O)C1=O` [compound 1168] ({CH2CO}-FWD[NHexGly]YY(Carboxymethyl)NR[NMeNle][Ahp(2)]P[Tle]DC-NH2; thioether N-14), 26.2 nM.
Still for that read-out and setting: as for `CCCCCCN1CC(=O)N[C@@H](Cc2ccc(O)cc2)C(=O)N[C@@H](CCCC)C(=O)N[C@@H](CC(=O)O)C(=O)N[C@@H](CCCNC(=N)N)C(=O)N(C)[C@@H](CCCC)C(=O)N[C@@H](CCCCC)C(=O)N2CCC[C@H]2C(=O)N[C@@H](C(C)(C)C)C(=O)N[C@@H](CO)C(=O)N[C@H](C(=O)N[C@@H](CC(N)=O)C(=O)O)CSCC(=O)N[C@@H](Cc2ccccc2)C(=O)N[C@@H](Cc2c[nH]c3ccccc23)C(=O)N[C@@H](CC(=O)O)C1=O` [Example 1399] ({CH2CO}-FWD[NHexGly]Y[Nle]DR[NMeNle][Ahp(2)]P[Tle]SCN-OH; thioether N-14), the figure is 27.3 nM.
For the compound `CCCCCCN1CC(=O)N[C@@H](Cc2ccc(O)cc2)C(=O)N[C@@H](CCCC)C(=O)NCC(=O)N[C@@H](CCCNC(=N)N)C(=O)N[C@@H](CC(C)C)C(=O)N[C@@H](CCCCC)C(=O)N2CCC[C@H]2C(=O)N[C@@H](C(C)C)C(=O)N[C@@H](CC(=O)O)C(=O)N[C@H](C(=O)NCC(=O)O)CSCC(=O)N[C@@H](Cc2ccc3ccccc3c2)C(=O)N[C@@H](Cc2ccc(O)cc2)C(=O)N[C@@H](CC(=O)O)C1=O` [Ex 1285] ({CH2CO}-[2Nal]YD[NHexGly]Y[Nle]GRL[Ahp(2)]PVDCG-OH; thioether N-14), the IC50 (cell-based binding high-content assay, mVISTA, the 16th table, read-out: HC CBA mVISTA IC50) worked out at 8.3 nM.
Turning to `CCCCCCN1CC(=O)N[C@@H](Cc2ccc(O)cc2)C(=O)N[C@@H](CC(C)C)C(=O)N[C@@H](CC(N)=O)C(=O)N[C@@H](CCCNC(=N)N)C(=O)N(C)[C@@H](CCCC)C(=O)N[C@@H](CCCCC)C(=O)N2CCC[C@H]2C(=O)N[C@@H](C(C)(C)C)C(=O)N[C@@H](CC(=O)O)C(=O)N[C@H](C(=O)N[C@@H](CC(=O)NCCOCCOCC(=O)N[C@@H](CC(=O)O)C(=O)NCCOCCOCC(=O)NCCCCCCCCCCC(=O)O)C(=O)O)CSCC(=O)N[C@@H](Cc2ccccc2)C(=O)N[C@@H](Cc2cccc(C)c2)C(=O)N[C@@H](CC(=O)O)C1=O` [compound 2075] ({CH2CO}-F[Phe(3-Me)]D[NHexGly]YLNR[NMeNle][Ahp(2)]P[Tle]DC[βAsp][AEEA]D[AEEA][Aun]-OH; thioether N-14), the IC50 (cell-based binding high-content assay, mVISTA, read-out: HC CBA miPrISTA IC50) was determined as 24.1 nM.
For `CCCCCCN1CC(=O)N[C@@H](Cc2ccc(O)cc2)C(=O)N[C@@H](CCCCC)C(=O)N[C@@H](CC(N)=O)C(=O)N[C@@H](CCCN)C(=O)N(C)[C@@H](CCCC)C(=O)N[C@@H](CCCCC)C(=O)N2CCC[C@H]2C(=O)N[C@@H](C(C)(C)C)C(=O)N[C@@H](CO)C(=O)N[C@H](C(=O)N[C@@H](CCC(=O)NCCCCCCCCCCC(=O)O)C(=O)O)CSCC(=O)N[C@@H](Cc2ccccc2)C(=O)N[C@@H](Cc2ccc(O)cc2)C(=O)N[C@@H](CC(=O)O)C1=O` [Example 2143] ({CH2CO}-FYD[NHexGly]Y[Ahp(2)]N[Orn][NMeNle][Ahp(2)]P[Tle]SC[γGlu][Aun]-OH; thioether N-14), the IC50 (read-out: HC CBA mVISTA IC50) stood at 29.4 nM.
Take `CCCCCCN1CC(=O)N[C@@H](Cc2ccc(O)cc2)C(=O)N[C@@H](CCCCC)C(=O)NCC(=O)N[C@@H](CCCNC(=N)N)C(=O)N[C@@H](CC(C)C)C(=O)N[C@@H](CCCCC)C(=O)N2CCC[C@H]2C(=O)N[C@@H](C(C)C)C(=O)N[C@@H](CO)C(=O)N[C@H](C(=O)NCC(=O)O)CSCC(=O)N[C@@H](Cc2ccccc2)C(=O)N[C@@H](Cc2ccc(O)cc2)C(=O)N[C@@H](CC(=O)O)C1=O` [Example 1044] ({CH2CO}-FYD[NHexGly]Y[Ahp(2)]GRL[Ahp(2)]PVSCG-OH; thioether N-14): the IC50 under setting [2] stood at 21.4 nM.
Same read-out and setting: next, `CCCCCCN1CC(=O)N[C@@H](Cc2ccc(O)cc2)C(=O)N[C@@H](CC(C)C)C(=O)N[C@@H](CC(N)=O)C(=O)N[C@@H](CCCNC(=N)N)C(=O)N[C@@H](CC(C)C)C(=O)N[C@@H](CCCCC)C(=O)N2CCC[C@H]2C(=O)N[C@@H](C(C)C)C(=O)N[C@@H](C(C)C)C(=O)N[C@H](C(=O)N[C@@H](CO)C(=O)O)CSCC(=O)N[C@@H](Cc2ccccc2)C(=O)N[C@@H](Cc2ccc(O)cc2)C(=O)N[C@@H](CC(=O)O)C1=O` [Example 1072] ({CH2CO}-FYD[NHexGly]YLNRL[Ahp(2)]PVVCS-OH; thioether N-14): 5.8 nM.

In general, IC50 refers to the concentration that gives 50% inhibition.
